Source: patent US7192607B2, “Formulations for the prevention or the treatment of diseases affecting mucosae or skin, or for pregnancy prevention, and an applicator for the delivery of topical formulations into mucosal cavities” (Infectio Recherche Inc, priority 2002, dated 2007)

Test system: glycoprotein D gene of HSV-1 (strain F)
Assay: Quantification of HSV glycoprotein D gene in Vero cells infected with pretreated virus (hybridization, densitometry)
Assay type: cell-based, Herpes simplex virus type-1
Details: 48 h infection
Method: The quantification of the glycoprotein D gene of HSV-1 (strain F) pretreated with SLS was also evaluated in Vero cells in order to determine the presence of viral DNA in the infected cells. In brief, HSV-1 (strain F) was pretreated with varying SLS concentrations (12.5, 25, 50, 75 and 100 μM) in EMEM +2% FBS for 1 h at 37° C. Vero cells (80–90% confluent) were infected with the virus (100 PFU/ml in 20 ml) for 48 h at 37° C. in a 5% CO2 atmosphere. The culture medium was removed and cell sheet was washed twice with 1× HBSS. Cells were scrapped off from the dishes and resuspended in EMEM +2% FBS. Total DNA was extracted using a standard phenol/chloroform procedure. Quantitation of total DNA was achieved using the Burton procedure. The probe used for this study corresponds to a part of glycoprotein D of HSV-2 (strain 333), generated by PCR using the following primers: • P1 (5′-[…]-3′) and • P2 (5′-[…]-3′) and was [^32P]-labeled by random priming. Hybridization was performed at 65° C. in 0.25 M Na2HPO4 (pH 6.8 with orthophosphoric acid) and 7% SDS. Washes were done in 40 mM Na2HPO4 (pH 6.8 with orthophosphoric acid) and 1% SDS for 20 min at 65° C. followed by 20 min at 25° C.
Following a 48 h incubation, cells were collected and total DNA was extracted. […] Quantitative measurements of HSV-1 DNA levels obtained by scanning densitometry of the autoradiogram were similar (Panel B).

In the case of CCCCCCCCCCCCOS(=O)(=O)[O-].[Na+] [SLS, Sodium lauryl sulfate], the “HSV-1 DNA levels (glycoprotein D gene)” value (virus pretreated with 75 μM SLS for 1 h at 37° C.) is reported as 65.1 % of control values, the “HSV-1 DNA levels (glycoprotein D gene)” value (virus pretreated with 100 μM SLS for 1 h at 37° C.) is reported as 34.9 % of control values and the “expression of the glycoprotein D gene compared to control” value (virus pretreated with 12.5, 25 and 50 μM SLS for 1 h at 37° C.) is reported as “No major modification”.
